Data as given in article PMC10983001, “Development of Cytotoxic GW7604-Zeise’s Salt Conjugates as Multitarget Compounds with Selectivity for Estrogen Receptor- Positive Tumor Cells” (Journal of Medicinal Chemistry, 2024).
Where two headings read alike, the source gives them in different places.

Columns and labels:
MCF-7 cells [1] = assay: MTT assay of metabolic activity, MCF-7; type: cell-based, human
Description: (§1) The GW7604-Alk-PtCl3 complexes (with exclusion of GW7604-Prop-PtCl3) were investigated for cytotoxic effects in SKBr3 (ER-negative, COX-2-positive, Figure 6), MCF-7 (ERα-positive, COX-negative, Figure 6), and noncancerous TSA-201 (human embryonal kidney) cells at concentrations of 10–30 μM using an established MTT (3-(4,5-dimethylthiazol-2-yl)-2,5-diphenyltetrazolium bromide) assay.[60],[69]
(§2) After incubation for 72 h, the amounts of surviving, metabolically active cells were quantified based on their ability to transform the water-soluble yellow dye MTT to a purple formazan, which can be analyzed by UV–vis spectroscopy.
(§3) The exponentially growing cells were seeded at a density of 1750 (MCF-7), 2000 (SKBr3), and 1250 (TSA-201) cells/well into clear flat-bottom 96-well plates in triplicate. Following 24 h of incubation at 37 °C in a humidified atmosphere (5% CO2/95% air), the compounds [freshly prepared stock solutions in DMF, diluted with DMEM to the desired concentration (final DMF concentration of 0.1% (v/v))] were added to reach the indicated concentrations. After another 72 h of incubation, the cellular metabolic activity was measured employing an MTT assay. By adding predissolved MTT reagent in PBS at a final concentration of 0.5 mg/mL, the metabolic activity can be determined via an enzymatic conversion to a purple formazan salt. After 3 h, the medium was aspirated, and 200 μL of DMSO was added to dissolve the formed formazan crystals. The absorbance was measured at 570 and 690 nm (turbidity assessment) using an EnSpire plate reader (PerkinElmer, Waltham, MA, USA). Solvent-treated cells without a compound served as the positive control. Metabolic activity was calculated by the following equation [drawing 1]

[2] = molecular target: T1, ERα ligand-binding domain (Homo sapiens, UniProt P03372); assay: TR-FRET ligand binding assay, isolated LBD of ERα
T1 construct: purchased Invitrogen
T1 sequence (P03372 311-547 limits assumed): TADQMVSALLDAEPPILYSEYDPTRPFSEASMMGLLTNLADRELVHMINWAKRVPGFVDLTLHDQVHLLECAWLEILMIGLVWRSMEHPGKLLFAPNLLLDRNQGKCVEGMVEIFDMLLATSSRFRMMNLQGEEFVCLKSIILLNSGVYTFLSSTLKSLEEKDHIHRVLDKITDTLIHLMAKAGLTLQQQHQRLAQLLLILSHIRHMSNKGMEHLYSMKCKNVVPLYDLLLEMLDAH
Description: (§4) A modified LanthaScreen TR-FRET alpha/beta assay was performed, according to the manufacturer’s protocol (Invitrogen, Carlsbad, […]), to determine the binding affinity to the isolated LBD. […] Measurements were carried out on a multimode plate reader, Tecan Spark (Tecan, Männedorf, Switzerland). Calculations and visualization were performed with GraphPad Prism 8.0 (GraphPad Software, San Diego, CA, USA).

[3] = molecular target: T2, ERβ ligand-binding domain (Homo sapiens, UniProt Q92731); assay: TR-FRET ligand binding assay, isolated LBD of ERβ
T2 construct: purchased Invitrogen
Description: as §4

SKBr3 cells [4] = assay: MTT assay of metabolic activity, SKBr3; type: cell-based, human; settings: 72 h; for IC50: MTT
Description: as §1, §2, §3

MCF-7 cells [5] = assay: Cellular uptake (platinum by HR-CS-AAS), MCF-7; type: cell-based, human; settings: MCF-7, 20 μM, 8 h
Description: (§5) In order to reach the DNA, the complexes must first pass through the cell membrane and penetrate into the nuclei. Therefore, the cellular uptake kinetics of GW7604-Alk-PtCl3 complexes were studied using the example of GW7604-Pent-PtCl3. This complex and Cisplatin, respectively, were incubated at a concentration of 20 μM with MCF-7 or SKBr3 cells. After various time points [i.e., 0 (3 min), 0.5, 1, 2, 4, and 8 h], cell pellets were prepared, and the platinum content was quantified by high-resolution continuum source atomic absorption spectrometry (HR-CS-AAS).[52]
(§6) After thawing of the cell/nuclei pellets, they were resuspended in ultrapure water (Siemens LaboStar, Günzburg, Germany; 300 μL) and lyzed with a sonotrode (Bandelin Sonoplus, Berlin, Germany; parameters 20 s, 9 cycles, 80% power). Graphite furnace (GF) AAS was used to quantify the lysates concerning their content of platinum (λ = 265.9450 nm). For this purpose, a contrAA 700 High-Resolution-Continous Source AAS (Analytik Jena, Jena, Germany) was employed, while atomization took place by electrothermal heating of graphite tubes with an inserted platform (Analytik Jena, Jena, Germany). A time–temperature program reported in the literature[25] was followed with minor adjustments. The liquid samples kept in 0.5 mL polystyrene vials (Gesellschaft für Analysentechnik, Salzwedel, Germany) were injected directly into the pyrolytically coated tubes using an MPE 60 autosampler (Analytik Jena, Jena, Germany). Throughout the measurements, argon (Alphagaz 1, 99.999%, Air Liquide, Düsseldorf, Germany) served as the purge and protective gas. The spectrometer was monitored with the ASpect CS software, version 2.3.1.0 (Analytik Jena, Jena, Germany). For all runs, the mean integrated absorbance was determined after three injections of each standard or sample. Calibration was performed by an appropriate dilution of a solution of Cisplatin (Sigma-Aldrich, Taufkirchen, Germany) obtaining five standards (2–10 μg/L, R^2 ≥ 0.982). Each cell/nuclei lysate was quantified concerning its protein content following the method of Bradford[71] in order to express the uptake as the amount of compound (pmol) in the lysate relative to its protein mass (mg). Therefore, solutions of Albumin fraction V (Carl Roth, Karlsruhe, Germany) diluted with ultrapure water were adduced for the calibration (six standards, 50–300 μg/mL, R^2 ≥ 0.996). A volume of 20 μL of the Albumin standards or the lysates was added to a 96-well plate (Sarstedt, Nürmbrecht, Germany) and supplemented with 200 μL of Bradford’s reagent (Roti-Nanoquant, Carl Roth, Karlsruhe, Germany; diluted 5-fold with ultrapure water). All standards and lysates were measured in duplicate. After incubating for 5 min at rt, the absorbance (λ = 595 nm) was read on a microplate reader (Tecan Safire 2, Männedorf, Switzerland). The cellular/nuclear uptake (pmol complex/mg protein) is given as the mean ± SD of 2 independent experiments.
For cellular uptake studies, 1.0 × 10^6 of MCF-7 and SKBr3 cells in their exponential growing phase were seeded into 25 cm^2 cell culture flasks and incubated for 24 h under a humidified atmosphere (5% CO2/95% air) at 37 °C. Stock solutions of the platinum complexes (GW7604-Pent-PtCl3, Cisplatin) in DMF were freshly prepared and diluted with complete DMEM containing 10% FCS to the desired concentration [final DMF concentration of 0.1% (v/v), final complex concentration of 20 μM]. The medium in the cell culture flasks was replaced with 3 mL of fresh cell culture medium containing the compounds, and the flasks were incubated under a humidified atmosphere at 37 °C for 3 min, 0.5, 1, 2, 4, and 8 h. Cell pellets were prepared by removing the medium, washing two times with phosphate-buffered saline (PBS), and detaching the cells with Accutase (GE Healthcare, BioSciences, Chicago, IL, USA). Subsequently, cells were pelleted by centrifugation (4 °C, 380g, 3 min). […]

SKBr3 cells [6] = assay: Cellular uptake (platinum by HR-CS-AAS), SKBr3; type: cell-based, human; settings: 8 h
Description: as §5
as §6, with “A volume of 20 μL of the Albumin standards or the lysates was added to a 96-well plate (Sarstedt, Nürmbrecht, Germany) and supplemented with 200 μL of Bradford’s reagent (Roti-Nanoquant, Carl Roth, Karlsruhe, Germany; diluted 5-fold with ultrapure water).” left out, “The cellular/nuclear uptake (pmol complex/mg protein) is given as the mean ± SD of 2 independent experiments.” left out

MCF-7 cells [7] = assay: Comet assay; type: cell-based, human; settings: MCF-7, 15 μM, 48 h
Description: The comet assay (Figure 10), however, documents different consequences of DNA binding. […] The picture (Figure 10C) is very similar to that of the solvent control (Figure 10A).
MCF-7 cells were seeded at a density of 1.0 × 10^6 cells into a 25 cm^2 flask, followed by 24 h of incubation in a humidified atmosphere (5% CO2/95% air) at 37 °C. […] Cells were incubated with the compounds for 48 h. The assay was performed according to the manufacturer’s protocol (Comet assay kit, Abcam, Cambridge, UK). Briefly, after lysis and application to the microscopy slides, electrophoresis was run in an alkaline buffer for 20 min at 2 V/cm. Subsequently, slides were washed with pure deionized water and EtOH/water [7/3 (v/v)], and stained with Vista Green DNA Dye. Visualization was carried out by real-time live confocal microscopy using an inverted microscope (Zeiss Observer Z1) in arrangement with a spinning disc confocal system (UltraVIEW VoX).

nuclei of SKBr3 cells = assay: Nuclear uptake (platinum by HR-CS-AAS), SKBr3; type: cell-based, human; settings: SKBr3, 20 μM, 24 h
Description: (§7) Fluorescence in the nuclei is not detectable. Therefore, the nuclei were analyzed for their platinum content using HR-CS-AAS.[25]
(§8) After thawing of the cell/nuclei pellets, they were resuspended in ultrapure water (Siemens LaboStar, Günzburg, Germany; 300 μL) and lyzed with a sonotrode (Bandelin Sonoplus, Berlin, Germany; parameters 20 s, 9 cycles, 80% power). Graphite furnace (GF) AAS was used to quantify the lysates concerning their content of platinum (λ = 265.9450 nm). For this purpose, a contrAA 700 High-Resolution-Continous Source AAS (Analytik Jena, Jena, Germany) was employed, while atomization took place by electrothermal heating of graphite tubes with an inserted platform (Analytik Jena, Jena, Germany). […] The spectrometer was monitored with the ASpect CS software, version 2.3.1.0 (Analytik Jena, Jena, Germany). For all runs, the mean integrated absorbance was determined after three injections of each standard or sample. […] Each cell/nuclei lysate was quantified concerning its protein content following the method of Bradford[71] in order to express the uptake as the amount of compound (pmol) in the lysate relative to its protein mass (mg). […] All standards and lysates were measured in duplicate. After incubating for 5 min at rt, the absorbance (λ = 595 nm) was read on a microplate reader (Tecan Safire 2, Männedorf, Switzerland). […]

nuclei of MCF-7 cells = assay: Nuclear uptake (platinum by HR-CS-AAS), MCF-7; type: cell-based, human; settings: MCF-7, 20 μM, 24 h; pmol complex/mg protein
Description: as §7, §8

TSA-201 cells = assay: MTT assay of metabolic activity, noncancerous TSA-201; type: cell-based, human; settings: 72 h; for IC50: MTT, read-out: IC50 TSA-210
Description: as §1, §2, §3

Water solubility = type: physicochemical
[8] = Homo sapiens, MCF7, 72 h, MTT, read-out: IC50 MCF-7
[9] = 72 h, MTT, read-out: IC50 MCF-7

T2 sequence (Q92731 264-498 limits assumed): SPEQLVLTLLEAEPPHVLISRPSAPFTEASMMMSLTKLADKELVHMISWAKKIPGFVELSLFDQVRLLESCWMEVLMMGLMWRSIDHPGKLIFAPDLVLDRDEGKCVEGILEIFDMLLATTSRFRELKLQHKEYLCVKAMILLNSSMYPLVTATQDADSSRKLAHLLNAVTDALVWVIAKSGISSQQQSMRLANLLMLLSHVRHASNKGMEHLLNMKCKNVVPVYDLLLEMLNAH

Compound: CCC(=C(c1ccc(O)cc1)c1ccc(C=CC(=O)O)cc1)c1ccccc1 (mixture of isomers) [GW7604, (E)-3-(4-((E/Z)-1-(4-hydroxyphenyl)-2-phenylbut-1-en-1-yl)phenyl)acrylic acid]
- IC50 (MCF-7 cells [1]; Homo sapiens, MCF7, read-out: IC50, reduction of growth of MCF-7 cells): 0.171 µM

Compound: C=CCCOC(=O)/C=C/c1ccc(C(=C(CC)c2ccccc2)c2ccc(O)cc2)cc1 (mixture of isomers) [GW7604-But, But-3-en-1-yl (E)-3-(4-((E/Z)-1-(4-hydroxyphenyl)-2-phenylbut-1-en-1-yl)phenyl) Acrylate]
- IC50 (MCF-7 cells [1]; [8]): > 30 µM

Compound: C=CCCCCOC(=O)/C=C/c1ccc(C(=C(CC)c2ccccc2)c2ccc(O)cc2)cc1 (mixture of isomers) [GW7604-Hex, Hex-5-en-1-yl (E)-3-(4-((E/Z)-1-(4-hydroxyphenyl)-2-phenylbut-1-en-1-yl)phenyl) Acrylate]
- IC50 (MCF-7 cells [1]; [8]): > 30 µM

Compound: C=CCCCOC(=O)/C=C/c1ccc(C(=C(CC)c2ccccc2)c2ccc(O)cc2)cc1 (mixture of isomers) [GW7604-Pent, Pent-4-en-1-yl (E)-3-(4-((E/Z)-1-(4-hydroxyphenyl)-2-phenylbut-1-en-1-yl)phenyl) Acrylate]
- RBA (ERα) ([2]; RBA(E2) = 100%): 0.90%
- IC50 ([2]; read-out: IC50 (ERα), displacement from the LBS): 0.0391 µM
- IC50 (MCF-7 cells [1]; [8]): > 30 µM
- RBA (ERβ) ([3]; RBA(E2) = 100%): 0.23%
- IC50 ([3]; read-out: IC50 (ERβ), displacement from the LBS): 0.105 µM

Compound: C=CCOC(=O)/C=C/c1ccc(C(=C(CC)c2ccccc2)c2ccc(O)cc2)cc1 (mixture of isomers) [GW7604-Prop, Prop-2-en-1-yl (E)-3-(4-((E/Z)-1-(4-hydroxyphenyl)-2-phenylbut-1-en-1-yl)phenyl) Acrylate]
- IC50 (MCF-7 cells [1]; [8]): 20 to 30 µM

Compound: N.N.[Cl][Pt][Cl] [Cisplatin, cis-diamminedichloridoplatinum(II), reference compound]
- reduction of metabolic activity (SKBr3 cells [4]; SKBr3, 20 μM): 88%
- intracellular platinum amount (MCF-7 cells [5]): 319 pmol/mg
- accumulation in SKBr3 relative to MCF-7 cells (SKBr3 cells [6]; 20 μM): 15 fold
- intracellular platinum amount (SKBr3 cells [6]; SKBr3, 20 μM): 995 pmol/mg
- comet tails (DNA cross-links) (MCF-7 cells [7]): visible as comet tails
- IC50 (MCF-7 cells [1]; [9]): 15 µM
- platinum content in the nuclei (nuclei of SKBr3 cells): 652 pmol/mg
- platinum content in the nuclei (nuclei of MCF-7 cells): 172 pmol/mg

Compound: Potassium trichlorido[η^2-(but-3-en-1-yl (E)-3-(4-((E/Z)-1-(4-hydroxyphenyl)-2-phenylbut-1-en-1-yl)phenyl)acrylate)]platinate(II) [GW7604-But-PtCl3]
- IC50 (SKBr3 cells [4]): > 30 µM
- IC50 (MCF-7 cells [1]; [9]): 20.4 µM
- IC50 (TSA-201 cells): > 30 µM
- decrease of cell viability (TSA-201 cells; TSA-201, 30 μM): about 20%

Compound: Potassium trichlorido[η^2-(hex-5-en-1-yl (E)-3-(4-((E/Z)-1-(4-hydroxyphenyl)-2-phenylbut-1-en-1-yl)phenyl)acrylate)]platinate(II) [GW7604-Hex-PtCl3]
- IC50 (SKBr3 cells [4]): > 30 µM
- IC50 (MCF-7 cells [1]; [9]): 20.5 µM
- IC50 (TSA-201 cells): > 30 µM

Compound: Potassium trichlorido[η^2-(prop-2-en-1-yl (E)-3-(4-((E/Z)-1-(4-hydroxyphenyl)-2-phenylbut-1-en-1-yl)phenyl)acrylate)]platinate(II) [GW7604-Prop-PtCl3]
- water solubility (Water solubility): does not have sufficient water solubility
